From ChEMBL document CHEMBL3259660, “Haloemodin as novel antibacterial agent inhibiting DNA gyrase and bacterial topoisomerase I” (J Med Chem, 2014)

Target: T1, DNA topoisomerase 1 (Homo sapiens, UniProt P11387)
T1 sequence (P11387 whole entry): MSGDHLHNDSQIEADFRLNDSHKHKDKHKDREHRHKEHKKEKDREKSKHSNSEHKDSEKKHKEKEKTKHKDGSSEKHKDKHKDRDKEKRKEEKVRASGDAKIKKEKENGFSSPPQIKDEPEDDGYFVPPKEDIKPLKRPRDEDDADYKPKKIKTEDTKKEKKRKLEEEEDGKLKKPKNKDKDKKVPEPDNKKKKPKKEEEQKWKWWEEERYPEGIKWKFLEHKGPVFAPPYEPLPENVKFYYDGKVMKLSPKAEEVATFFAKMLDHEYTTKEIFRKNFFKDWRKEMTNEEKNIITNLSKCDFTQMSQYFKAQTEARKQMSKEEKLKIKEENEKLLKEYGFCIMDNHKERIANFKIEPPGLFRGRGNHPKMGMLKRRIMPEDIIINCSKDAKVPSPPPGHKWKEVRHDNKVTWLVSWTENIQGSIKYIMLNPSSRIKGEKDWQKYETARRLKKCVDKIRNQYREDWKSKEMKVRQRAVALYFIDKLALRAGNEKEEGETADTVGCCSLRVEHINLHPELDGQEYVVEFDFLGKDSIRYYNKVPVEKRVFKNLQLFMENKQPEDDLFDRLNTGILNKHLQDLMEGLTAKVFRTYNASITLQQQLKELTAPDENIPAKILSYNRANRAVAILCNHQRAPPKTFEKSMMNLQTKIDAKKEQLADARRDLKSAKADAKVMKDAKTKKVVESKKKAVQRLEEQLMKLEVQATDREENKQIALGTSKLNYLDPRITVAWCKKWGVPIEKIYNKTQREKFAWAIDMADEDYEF
Experiment: Inhibition of human topoisomerase 1-mediated pHOT-1 DNA relaxation at 10 to 150 uM treated with pHOT-1 substrate for 15 mins prior to enzyme addition for 30 mins by agarose gel electrophoresis
Settings: 0.5 h; call rule not given here

Cc1cc(O)c2c(c1)C(=O)c1c(I)c(O)c(I)c(O)c1C2=O
inhibition (INH): Not Active
